According to article PMC7163917 (European journal of medicinal chemistry, 2020):
Where two headings read alike, the source gives them in different places.

How the values were obtained:
[1] = tested on: phosphorylation of ERK1/2 in PC12 cells; assay: NGF-induced phosphorylation of ERK1/2 in PC12 cells; assay type: cell-based; details: 20 μM inhibitor, NGF 5 min
STEP F523A mutant = STEP F523A mutant (Homo sapiens, UniProt P54829, F547A)
STEP [2] = target: T1, STEP (Homo sapiens, UniProt P54829); assay: Ki measurement and Lineweaver-Burk kinetic analysis of STEP inhibition; assay type: biochemical; details: pNPP, pH 6.0, 30 °C
T1 sequence (P54829 300-555 limits assumed): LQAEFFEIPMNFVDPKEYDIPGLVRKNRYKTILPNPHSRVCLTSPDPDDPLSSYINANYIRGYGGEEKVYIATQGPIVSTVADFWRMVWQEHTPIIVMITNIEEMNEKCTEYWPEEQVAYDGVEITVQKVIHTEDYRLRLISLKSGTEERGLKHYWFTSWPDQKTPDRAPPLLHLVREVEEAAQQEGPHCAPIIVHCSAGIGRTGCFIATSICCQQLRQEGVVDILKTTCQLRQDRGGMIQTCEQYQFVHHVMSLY

[3] = tested on: phosphorylation of Pyk2 in PC12 cells; assay: NGF-induced phosphorylation of Pyk2 in PC12 cells; assay type: cell-based; details: 20 μM inhibitor, NGF 5 min
STEP [4] = target: T1, STEP; assay: STEP-catalyzed pNPP hydrolysis inhibition; assay type: biochemical; details: ST3 analogs, removal of carboxyl and hydroxyl group

Chain of STEP F523A mutant (P54829 282-563 F547A): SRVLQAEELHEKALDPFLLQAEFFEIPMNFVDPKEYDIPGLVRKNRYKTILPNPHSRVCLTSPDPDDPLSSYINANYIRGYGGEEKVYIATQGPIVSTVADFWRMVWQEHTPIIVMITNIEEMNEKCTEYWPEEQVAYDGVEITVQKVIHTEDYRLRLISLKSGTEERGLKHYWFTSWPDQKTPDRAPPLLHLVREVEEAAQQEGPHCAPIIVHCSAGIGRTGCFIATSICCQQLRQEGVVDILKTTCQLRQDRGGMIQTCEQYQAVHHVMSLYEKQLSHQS

In the case of `O=C(O)c1cccc2c1NC(c1cccc(Br)c1)C1CC(Sc3ccccc3[N+](=O)[O-])C(Cl)C21` (centres unmarked) [ST2], the “effect on NGF-induced phosphorylation of ERK1/2” value (from here on “effect … of ERK1/2”) [1] is reported as “significantly increased”, the “inhibitory activity in STEP F523A mutant compared with wild type” value (STEP F523A mutant) is reported as “decreased” and the “inhibition pattern (Lineweaver-Burk plot)” value (shortened to “inhibition pattern”) (STEP [2]) is reported as “competitive”. For the same molecule, the “effect on NGF-induced phosphorylation of Pyk2” value (from here on “effect … of Pyk2”) [3] was “significantly increased”.
`O=C(O)c1cccc2c1NC(c1ccc(F)cc1)C1CC(Sc3ccccc3[N+](=O)[O-])C(Cl)C21` (centres unmarked) [ST2–5] was tested, and the “effect … of ERK1/2” value [1] was “significantly increased”, the “inhibitory activity in STEP F523A mutant compared with wild type” value (STEP F523A mutant) was “decreased” and the “inhibition pattern” value (STEP [2]) was “competitive”. For the same molecule, the “effect … of Pyk2” value [3] was “significantly increased”.
With `O=C(O)c1cc(-c2ccc(/C=C3\Sc4ccccc4C3=O)o2)ccc1O` [ST3] the “effect … of ERK1/2” value [1] was “significantly increased”, the “inhibition pattern” value (STEP [2]) was “competitive” and the “effect … of Pyk2” value [3] was “significantly increased”.
`Cc1cc(-c2ccc(/C=C3\Sc4ccccc4C3=O)o2)ccc1Cl` [ST3–1] was tested, and the “effect of structural change on STEP inhibitory activity” value (STEP [4]) was “significantly decreased”.
In the case of `COC(=O)c1cccc(-c2ccc(/C=C3\Sc4ccccc4C3=O)o2)c1` [ST3–3], the “effect of structural change on STEP inhibitory activity” value (STEP [4]) is reported as “significantly decreased”.
For `Cc1cc(C(=O)O)ccc1-c1ccc(C=C2C(=O)c3ccccc3C2=O)o1` [ST3–5], the “effect … of ERK1/2” value [1] was “significantly increased”, the “inhibitory activity in STEP F523A mutant compared with wild type” value (STEP F523A mutant; STEP F523A mutant) was “decreased” and the “inhibition pattern” value (STEP [2]) was “competitive”. For the same molecule, the “effect … of Pyk2” value [3] was “significantly increased”.
